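At the GI50, growth is halved. TGI marks complete inhibition of growth.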
Legend:
Assay in all cases: NCI-60 cell line screen, 384-well format
HOP-62 NSCLC = system: HOP-62 NSCLC
U251 glioblastoma = system: U251 glioblastoma
UACC-62 melanoma = system: UACC-62 melanoma
MOLT-4 leukemia = system: MOLT-4 leukemia
KM12 colon = system: KM12 colon
CAKI-1 renal = system: CAKI-1 renal
TK-10 renal = system: TK-10 renal
HT29 colon = system: HT29 colon
HCC-2998 colon = system: HCC-2998 colon
NCI-H23 lung = system: NCI-H23 lung
SF-539 CNS = system: SF-539 CNS
PC-3 prostate = system: PC-3 prostate
NCI-H460 NSCLC = system: NCI-H460 NSCLC
HCT-15 colon = system: HCT-15 colon
SNB-19 CNS = system: SNB-19 CNS
T-47D breast = system: T-47D breast
OVCAR-5 ovarian = system: OVCAR-5 ovarian
CCRF-CEM leukemia = system: CCRF-CEM leukemia
SW-620 colon = system: SW-620 colon
SK-MEL-5 melanoma = system: SK-MEL-5 melanoma
MDA-MB-468 breast = system: MDA-MB-468 breast
OVCAR-3 ovarian = system: OVCAR-3 ovarian
UACC-257 melanoma = system: UACC-257 melanoma
SK-OV-3 ovarian = system: SK-OV-3 ovarian
OVCAR-4 ovarian = system: OVCAR-4 ovarian
SF-295 CNS = system: SF-295 CNS
BT-549 breast = system: BT-549 breast
NCI/ADR-RES ovarian = system: NCI/ADR-RES ovarian
A498 renal = system: A498 renal
DU-145 prostate = system: DU-145 prostate
MDA-MB-435 melanoma = system: MDA-MB-435 melanoma
COLO 205 colon = system: COLO 205 colon
EKVX NSCLC = system: EKVX NSCLC
NCI-H226 lung = system: NCI-H226 lung
786-0 renal = system: 786-0 renal
HL-60(TB) leukemia = system: HL-60(TB) leukemia
SF-268 CNS = system: SF-268 CNS
MDA-MB-231 breast = system: MDA-MB-231 breast
HS 578T breast = system: HS 578T breast
IGROV1 ovarian = system: IGROV1 ovarian
SNB-75 CNS = system: SNB-75 CNS
M14 melanoma = system: M14 melanoma
SK-MEL-2 melanoma = system: SK-MEL-2 melanoma
NCI-H322M lung = system: NCI-H322M lung
ACHN renal = system: ACHN renal
RPMI-8226 leukemia = system: RPMI-8226 leukemia
SR leukemia = system: SR leukemia
MALME-3M melanoma = system: MALME-3M melanoma
SK-MEL-28 melanoma = system: SK-MEL-28 melanoma
NCI-H522 lung = system: NCI-H522 lung
RXF 393 renal = system: RXF 393 renal
SN12C renal = system: SN12C renal
MCF7 breast = system: MCF7 breast
A549 NSCLC = system: A549 NSCLC
HOP-92 NSCLC = system: HOP-92 NSCLC
OVCAR-8 ovarian = system: OVCAR-8 ovarian
UO-31 renal = system: UO-31 renal
LOX IMVI melanoma = system: LOX IMVI melanoma

SMILES: C/C=C/C/C=C/CCC(=O)[C@H]1O[C@H]1C(N)=O
- GI50 (HOP-62 NSCLC): 1.34 µM
- TGI (HOP-62 NSCLC): 5.19 µM
- GI50 (U251 glioblastoma): 11.7 µM
- TGI (U251 glioblastoma): 24.7 µM
- GI50 (UACC-62 melanoma): 12.8 µM
- TGI (UACC-62 melanoma): 27.1 µM
- GI50 (MOLT-4 leukemia): 4.91 µM
- TGI (MOLT-4 leukemia): 16.9 µM
- GI50 (KM12 colon): 13 µM
- TGI (KM12 colon): 26.1 µM
- GI50 (CAKI-1 renal): 14 µM
- TGI (CAKI-1 renal): 27 µM
- GI50 (TK-10 renal): 18.1 µM
- TGI (TK-10 renal): 32.1 µM
- GI50 (HT29 colon): 18.1 µM
- TGI (HT29 colon): 32.7 µM
- GI50 (HCC-2998 colon): 12.7 µM
- TGI (HCC-2998 colon): 25.3 µM
- GI50 (NCI-H23 lung): 3.72 µM
- TGI (NCI-H23 lung): 12.7 µM
- GI50 (SF-539 CNS): 13.8 µM
- TGI (SF-539 CNS): 27.5 µM
- GI50 (PC-3 prostate): 11.1 µM
- TGI (PC-3 prostate): 23.4 µM
- GI50 (NCI-H460 NSCLC): 12.3 µM
- TGI (NCI-H460 NSCLC): 25 µM
- GI50 (HCT-15 colon): 6.61 µM
- TGI (HCT-15 colon): 19.6 µM
- GI50 (SNB-19 CNS): 14.1 µM
- TGI (SNB-19 CNS): 28.2 µM
- GI50 (T-47D breast): 5.89 µM
- TGI (T-47D breast): 17.6 µM
- GI50 (OVCAR-5 ovarian): 17.6 µM
- TGI (OVCAR-5 ovarian): 33.2 µM
- GI50 (CCRF-CEM leukemia): 3.26 µM
- TGI (CCRF-CEM leukemia): 11.3 µM
- GI50 (SW-620 colon): 14 µM
- TGI (SW-620 colon): 27.3 µM
- GI50 (SK-MEL-5 melanoma): 7.25 µM
- TGI (SK-MEL-5 melanoma): 19.8 µM
- GI50 (MDA-MB-468 breast): 2.17 µM
- TGI (MDA-MB-468 breast): 4.86 µM
- GI50 (OVCAR-3 ovarian): 12.3 µM
- TGI (OVCAR-3 ovarian): 24.8 µM
- GI50 (UACC-257 melanoma): 3.27 µM
- TGI (UACC-257 melanoma): 9.64 µM
- GI50 (SK-OV-3 ovarian): 16.7 µM
- TGI (SK-OV-3 ovarian): 33.2 µM
- GI50 (OVCAR-4 ovarian): 3.76 µM
- TGI (OVCAR-4 ovarian): 15.6 µM
- GI50 (SF-295 CNS): 11.9 µM
- TGI (SF-295 CNS): 24.6 µM
- GI50 (BT-549 breast): 3.21 µM
- TGI (BT-549 breast): 12.8 µM
- GI50 (NCI/ADR-RES ovarian): 15.4 µM
- TGI (NCI/ADR-RES ovarian): 31.1 µM
- GI50 (A498 renal): 17.7 µM
- TGI (A498 renal): 31.7 µM
- GI50 (DU-145 prostate): 12.7 µM
- TGI (DU-145 prostate): 25.4 µM
- GI50 (MDA-MB-435 melanoma): 16 µM
- TGI (MDA-MB-435 melanoma): 30 µM
- GI50 (COLO 205 colon): 21 µM
- TGI (COLO 205 colon): 35.4 µM
- GI50 (EKVX NSCLC): 6.48 µM
- TGI (EKVX NSCLC): 18.9 µM
- GI50 (NCI-H226 lung): 7.61 µM
- TGI (NCI-H226 lung): 19.7 µM
- GI50 (786-0 renal): 14.4 µM
- TGI (786-0 renal): 28.2 µM
- GI50 (HL-60(TB) leukemia): 7.3 µM
- TGI (HL-60(TB) leukemia): 19.3 µM
- GI50 (SF-268 CNS): 14.9 µM
- TGI (SF-268 CNS): 30 µM
- GI50 (MDA-MB-231 breast): 11.6 µM
- TGI (MDA-MB-231 breast): 24.5 µM
- GI50 (HS 578T breast): 8.38 µM
- TGI (HS 578T breast): 21 µM
- GI50 (IGROV1 ovarian): 14.6 µM
- TGI (IGROV1 ovarian): 28.8 µM
- GI50 (SNB-75 CNS): 2.19 µM
- TGI (SNB-75 CNS): 7.15 µM
- GI50 (M14 melanoma): 12.2 µM
- TGI (M14 melanoma): 25 µM
- GI50 (SK-MEL-2 melanoma): 8.59 µM
- TGI (SK-MEL-2 melanoma): 20.3 µM
- GI50 (NCI-H322M lung): 17.8 µM
- TGI (NCI-H322M lung): 31.9 µM
- GI50 (ACHN renal): 16.9 µM
- TGI (ACHN renal): 30.7 µM
- GI50 (RPMI-8226 leukemia): 2.82 µM
- TGI (RPMI-8226 leukemia): 6.86 µM
- GI50 (SR leukemia): 2.21 µM
- TGI (SR leukemia): 4.91 µM
- GI50 (MALME-3M melanoma): 12.7 µM
- TGI (MALME-3M melanoma): 25.3 µM
- GI50 (SK-MEL-28 melanoma): 16.3 µM
- TGI (SK-MEL-28 melanoma): 30.2 µM
- GI50 (NCI-H522 lung): 3.29 µM
- TGI (NCI-H522 lung): 11.3 µM
- GI50 (RXF 393 renal): 0.407 µM
- TGI (RXF 393 renal): 3.86 µM
- GI50 (SN12C renal): 13.4 µM
- TGI (SN12C renal): 26.4 µM
- GI50 (MCF7 breast): 5.89 µM
- TGI (MCF7 breast): 18.4 µM
- GI50 (A549 NSCLC): 16.6 µM
- TGI (A549 NSCLC): 30.4 µM
- GI50 (HOP-92 NSCLC): 11.5 µM
- TGI (HOP-92 NSCLC): 23.9 µM
- GI50 (OVCAR-8 ovarian): 14.2 µM
- TGI (OVCAR-8 ovarian): 27.7 µM

SMILES: CC(=O)O[C@@]12CO[C@@H]1C[C@H](O)[C@@]1(C)C(=O)[C@H](O)C3=C(C)[C@@H](OC(=O)[C@H](O)[C@@H](NC(=O)OC(C)(C)C)c4ccccc4)C[C@@](O)([C@@H](OC(=O)c4ccccc4)[C@H]21)C3(C)C
- TGI (HOP-62 NSCLC): 17.3 µM
- TGI (KM12 colon): 24 µM
- TGI (CAKI-1 renal): 18 µM
- GI50 (TK-10 renal): < 0.0143 µM
- TGI (TK-10 renal): > 47.4 µM
- TGI (NCI-H23 lung): 27.3 µM
- TGI (PC-3 prostate): 37.5 µM
- GI50 (UO-31 renal): 0.0791 µM
- TGI (UO-31 renal): 51.8 µM
- GI50 (HCT-15 colon): < 0.0151 µM
- TGI (HCT-15 colon): 1.79 µM
- TGI (SNB-19 CNS): > 70.7 µM
- TGI (T-47D breast): > 100 µM
- TGI (OVCAR-5 ovarian): 36.3 µM
- TGI (UACC-257 melanoma): 31.6 µM
- TGI (SK-OV-3 ovarian): > 100 µM
- TGI (OVCAR-4 ovarian): 39.9 µM
- GI50 (NCI/ADR-RES ovarian): 0.782 µM
- TGI (NCI/ADR-RES ovarian): 2.26 µM
- TGI (A498 renal): 18.7 µM
- TGI (EKVX NSCLC): 35.8 µM
- TGI (NCI-H226 lung): 22.5 µM
- TGI (SF-268 CNS): 36.1 µM
- TGI (IGROV1 ovarian): 27.8 µM
- TGI (NCI-H322M lung): 31.3 µM
- GI50 (ACHN renal): 0.0201 µM
- TGI (ACHN renal): 20.9 µM
- GI50 (MALME-3M melanoma): 12 µM
- TGI (MALME-3M melanoma): 24.8 µM
- TGI (RXF 393 renal): < 0.0108 µM
- TGI (SN12C renal): 21.2 µM
- TGI (MCF7 breast): 24.7 µM
- TGI (A549 NSCLC): 29.1 µM
- TGI (HOP-92 NSCLC): 33.2 µM
- TGI (LOX IMVI melanoma): 17.4 µM
